Our source for the CC50 and EC50 values is ChEMBL document CHEMBL2346553, “Synthesis and evaluation of non-dimeric HCV NS5A inhibitors” (Bioorg Med Chem Lett, 2013).

The term EC50 denotes the midpoint of the concentration-response curve. Read a high EC50 as lower potency in that assay.

Structures are written as SMILES.

Data set [1] in a line: in vitro. The note with it: human, HuH7 cells.
Data set [2] can be described thus: in vitro. The note with it: chlorocebus sabaeus, Vero cells.
Data set [3] relates to Hepatitis C virus. Put plainly: microbe, parasite or virus in culture. The note with it: genotype 1b, Huh-7.
A short description of data set [4]: in vitro. The note with it: human, CEM cells.
A short description of data set [5]: in vitro. The note with it: human, pbmc.

Consider `COC(=O)N[C@H](C(=O)N1CCC[C@H]1c1ncc(-c2ccc(-c3ccccc3C(F)(F)F)cc2)[nH]1)C(C)C`, for which the CC50 in data set [1] was more than 1 µM; in data set [2], 13 µM; in data set [4], 75 µM; in data set [5], 24 µM. Besides, the EC50 in data set [3] was more than 0.1 µM.
